# US20220120736A1, “METHODS AND ASSAYS FOR MODULATING GENE TRANSCRIPTION BY MODULATING CONDENSATES” (Whitehead Institute for Biomedical Research, priority 2018, published 2022)
# Assays:
# Assay type in all cases: cell-based
# OCT4 (FKBP-tagged) = target: T1, OCT4 (FKBP-tagged) (Mus musculus, UniProt P20263+Q8C7D2); assay: ChIP-seq after OCT4 degradation in OCT4-FKBP ESCs; conditions: dTag 24 hours versus DMSO
# T1 construct: an ESC line bearing endogenous knock-in of DNA encoding the FKBP protein fused to OCT4; HA (C); endogenous in cells; host or cells: V6.5 mouse ES cells (Med1-mEGFP background), homozygous Oct4-FKBP knock-in
# Description: mES were grown to 80% confluence in 2i media. 1% formaldehyde in PBS was used for crosslinking of cells for 15 minutes, followed by quenching with Glycine at a final concentration of 125 mM on ice. Cells were washed with cold PBS and harvested by scraping cells in cold PBS. Collected cells were pelleted at 1000 g for 3 minutes at 4° C., flash frozen in liquid nitrogen and stored at −80° C. All buffers contained freshly prepared cOmplete protease inhibitors (Roche, 11873580001). […] The pellet was resuspended in sonication buffer (20 mM Tris-HCl pH 8.0, 150 mM NaCl, 2 mM EDTA pH 8.0, 0.1% SDS, and 1% Triton X-100, 1 3 protease inhibitors) and then sonicated on a Misonix 3000 sonicator for 10 cycles at 30 s each on ice (18-21 W) with 60 s on ice between cycles. Sonicated lysates were cleared once by centrifugation at 16,000 rcf. for 10 minutes at 4° C. Input material was reserved and the remainder was incubated overnight at 4° C. with magnetic beads bound with antibody (Table S4) to enrich for DNA fragments bound by the indicated factor. […]
# ChIP-Seq data were aligned to the mm9 version of the mouse reference genome using bowtie with parameters -k 1 -m 1 -best and -l set to read length. […]
# [1] = tested on: mutant (Y537S) and mutant (D538G) ER activation domain; assay: Lac array assay in U2OS cells, mutant ER fusions; conditions: Y537S and D538G mutants, presence versus absence of estrogen
# Description: A Lac binding domain-CFP-ER activation domain (ER) fusion protein, Lac binding domain-CFP-mutant (Y537S) ER activation domain fusion protein, or Lac binding domain-CFP-ER mutant (D538G) activation domain fusion protein was introduced into U2OS cells bearing the Lac operon array. […] Same experimental conditions as FIG. 39.
# Constructs were assembled by NEB HIFI cloning in pSV2 mammalian expression vector containing an SV40 promoter driving expression of a CFP-LacI fusion protein. The activation domains and mutant activation domains of […] were fused by the c-terminus to this recombinant protein, joined by the linker sequence […] (SEQ ID NO: 17). U2OS-268 cells containing a stably integrated array of ˜51,000 Lac-repressor binding sites (a gift of the Spector laboratory) were transfected using lipofectamine 3000 (Thermofisher L3000015). 24 hours after transfection, cells were plated on fibronectin-coated glass coverslips. After 24 hours on glass coverslips, cells were fixed for immunofluorescence with a MED1 antibody (Table S4) as described above and imaged, by spinning disk confocal microscopy.
# [2] = tested on: ER LBD (GAL4 DNA-binding domain fusion) in HEK293T cells; assay: GAL4 transactivation assay; conditions: elevated MED1 levels; 10 nM Tamoxifen, 24 hours
# Description: (SEQ ID NO: 14). […] For high MED1 conditions, a construct with a mammalian expression vector containing a PGK promoter driving the expression of MED1 fused to GFP was co-transfected.
# T1 sequence (P20263 with tags, fused parts or gaps): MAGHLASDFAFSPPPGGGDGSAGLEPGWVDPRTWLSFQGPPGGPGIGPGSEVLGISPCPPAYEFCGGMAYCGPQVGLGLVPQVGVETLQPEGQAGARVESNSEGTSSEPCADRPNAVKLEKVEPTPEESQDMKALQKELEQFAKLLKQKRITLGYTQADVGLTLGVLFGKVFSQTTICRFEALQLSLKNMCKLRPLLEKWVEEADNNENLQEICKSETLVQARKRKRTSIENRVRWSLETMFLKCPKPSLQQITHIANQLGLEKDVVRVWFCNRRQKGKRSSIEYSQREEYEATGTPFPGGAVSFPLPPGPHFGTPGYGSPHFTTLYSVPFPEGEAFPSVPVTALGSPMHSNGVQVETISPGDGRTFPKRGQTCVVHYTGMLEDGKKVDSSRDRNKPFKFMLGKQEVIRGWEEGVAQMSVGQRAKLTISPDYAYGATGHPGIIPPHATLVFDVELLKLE
# T1 sequence (Q8C7D2 whole entry, the tested form may be a part): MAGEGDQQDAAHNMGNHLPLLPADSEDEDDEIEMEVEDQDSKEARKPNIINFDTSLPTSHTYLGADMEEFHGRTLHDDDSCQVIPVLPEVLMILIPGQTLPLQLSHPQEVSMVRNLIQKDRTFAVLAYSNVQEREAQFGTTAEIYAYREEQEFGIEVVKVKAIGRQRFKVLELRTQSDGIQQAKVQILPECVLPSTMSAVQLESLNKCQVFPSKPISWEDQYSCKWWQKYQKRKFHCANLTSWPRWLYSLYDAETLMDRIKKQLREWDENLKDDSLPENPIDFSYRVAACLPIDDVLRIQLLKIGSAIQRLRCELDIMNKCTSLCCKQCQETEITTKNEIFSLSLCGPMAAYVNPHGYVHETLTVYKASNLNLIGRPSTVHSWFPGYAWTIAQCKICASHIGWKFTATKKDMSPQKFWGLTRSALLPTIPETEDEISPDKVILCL
# T1 sequence (Q3U1J4 whole entry partner, the tested form may be a part): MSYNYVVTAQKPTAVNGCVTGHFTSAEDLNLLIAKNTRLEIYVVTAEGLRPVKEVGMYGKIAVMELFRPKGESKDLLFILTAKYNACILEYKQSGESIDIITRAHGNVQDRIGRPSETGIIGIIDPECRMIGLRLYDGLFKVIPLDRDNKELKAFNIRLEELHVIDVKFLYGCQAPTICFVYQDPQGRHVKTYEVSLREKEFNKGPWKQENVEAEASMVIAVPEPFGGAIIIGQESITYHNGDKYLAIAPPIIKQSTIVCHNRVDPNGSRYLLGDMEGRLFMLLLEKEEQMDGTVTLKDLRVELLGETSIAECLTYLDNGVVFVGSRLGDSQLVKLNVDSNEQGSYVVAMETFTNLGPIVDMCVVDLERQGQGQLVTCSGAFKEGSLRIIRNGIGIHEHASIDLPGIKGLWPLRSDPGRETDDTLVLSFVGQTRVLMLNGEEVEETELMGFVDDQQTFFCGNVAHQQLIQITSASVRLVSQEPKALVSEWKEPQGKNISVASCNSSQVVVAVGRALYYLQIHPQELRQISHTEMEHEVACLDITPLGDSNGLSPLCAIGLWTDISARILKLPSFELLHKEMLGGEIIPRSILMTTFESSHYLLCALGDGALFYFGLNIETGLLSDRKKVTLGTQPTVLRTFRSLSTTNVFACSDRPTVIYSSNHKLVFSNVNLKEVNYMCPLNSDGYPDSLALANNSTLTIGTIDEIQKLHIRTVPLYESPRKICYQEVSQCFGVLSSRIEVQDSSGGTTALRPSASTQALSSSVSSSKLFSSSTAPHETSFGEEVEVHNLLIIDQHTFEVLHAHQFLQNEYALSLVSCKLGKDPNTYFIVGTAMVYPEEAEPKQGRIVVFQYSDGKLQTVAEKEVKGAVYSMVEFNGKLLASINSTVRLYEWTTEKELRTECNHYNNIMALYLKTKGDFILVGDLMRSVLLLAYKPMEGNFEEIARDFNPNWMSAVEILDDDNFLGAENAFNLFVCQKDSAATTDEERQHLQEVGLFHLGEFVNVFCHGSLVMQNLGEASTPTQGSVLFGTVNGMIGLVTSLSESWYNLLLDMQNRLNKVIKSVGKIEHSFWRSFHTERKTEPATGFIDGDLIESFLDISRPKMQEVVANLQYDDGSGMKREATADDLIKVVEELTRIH
smiles,measurement,setting,value
CC[C@H](C(=O)N1CCCC[C@H]1C(=O)O[C@H](CCc1ccc(OC)c(OC)c1)c1ccccc1OCC(=O)NCCCCCCCCNc1ccc2c(c1)C(=O)N(C1CCC(=O)NC1=O)C2=O)c1cc(OC)c(OC)c(OC)c1 (stereo partly shown) [dTag],OCT4 and MED1 occupancy at enhancers (SEs versus TEs),OCT4 (FKBP-tagged),"reduction of OCT4 and MEM occupancy at enhancers, with the most profound effects occurring at SEs"
"C[C@]12CC[C@@H]3c4ccc(O)cc4CC[C@H]3[C@@H]1CC[C@@H]2O [estrogen, B-Estradiol]","condensate formation, CFP signal of fusion protein",[1],did not significantly affect condensate formation
same,"condensate formation, mediator immunofluorescence",[1],did not significantly affect condensate formation
CC/C(=C(\c1ccccc1)c1ccc(OCCN(C)C)cc1)c1ccccc1 [tamoxifen],GAL4 transactivation with tamoxifen-bound ER,[2],showed activation
